Measurements: the NIST ThermoML archive (doi:10.1016/j.jct.2010.07.008)

Conditions: Liquid, Closed cell (Static) method

CN(C)CCOCCO [2-(2-dimethylaminoethoxy)ethanol]
Conditions	vapor or sublimation pressure [kPa]
283.15 K	0.007
293.14 K	0.016
303.09 K	0.0346
313.08 K	0.0707
323.28 K	0.1418
333.12 K	0.2604
343.12 K	0.4742
353.14 K	0.8145
363.35 K	1.419
373.1 K	2.315
